In ChEMBL document CHEMBL5236635, “Structure-Based Drug Design and Synthesis of Novel N-Aryl-2,4-bithiazole-2-amine CYP1B1-Selective Inhibitors in Overcoming Taxol Resistance in A549 Cells” (J Med Chem, 2022):
pIC50: −log10 of the molar value. The source made the active and inactive calls. The calls are words filed in the database; no cut-off is given here.

Key:
A549/TR [1] = assay: Synergistic antiproliferative activity against human A549/Taxol cells assessed as increase in taxol by measuring combination index at 15 uM incubated for 72 hrs in presence of 0.25 uM taxol by MTT assay; assay type: functional
[2] = molecular target: Focal adhesion kinase 1 (Homo sapiens) (UniProt Q05397); assay: Inhibition of FAK pathway in human A549/Taxol cells assessed as decrease in phosphorylated FAK level at 2.5 to 5 uM incubated for 24 hrs; assay type: cell-based; settings: dose 2.5-5 µM
A549/TR [3] = assay: Downregulation of Vimentin expression level in human A549/Taxol cells at 2.5 to 10 uM incubated for 24 hrs by densitometry analysis; assay type: functional, cell-based; settings: dose 2.5-10 µM
A549/TR [4] = assay: Synergistic antiproliferative activity against human A549/Taxol cells assessed as increase in taxol by measuring combination index at 15 uM incubated for 72 hrs in presence of 0.06 uM taxol by MTT assay; assay type: functional
[5] = molecular target: Proto-oncogene tyrosine-protein kinase Src (Homo sapiens) (UniProt P12931); assay: Inhibition of SRC pathway in human A549/Taxol cells assessed as decrease in phosphorylated FAK level at 2.5 to 5 uM incubated for 24 hrs; assay type: cell-based; settings: dose 2.5-5 µM
[6] = molecular target: T1, Mitogen-activated protein kinase; ERK1/ERK2 (Homo sapiens) (UniProt P27361+P28482); assay: Inhibition of ERK1/2 pathway in human A549/Taxol cells assessed as decrease in phosphorylated ERK1/2 level at 2.5 to 5 uM incubated for 24 hrs; assay type: cell-based; settings: dose 2.5-5 µM
A549/TR [7] = assay: Synergistic antiproliferative activity against human A549/Taxol cells assessed as increase in taxol by measuring combination index at 3.75 uM incubated for 72 hrs in presence of 1 uM taxol by MTT assay; assay type: functional
Cytochrome P450 1A1 = molecular target: T2, Cytochrome P450 1A1 (Homo sapiens, UniProt P04798); assay: Inhibition of recombinant human CYP1A1 using 7-ethyl-0-resorufin as substrate incubated for 30 mins in presence of NADPH by EROD assay
T2 sequence (P04798 whole entry): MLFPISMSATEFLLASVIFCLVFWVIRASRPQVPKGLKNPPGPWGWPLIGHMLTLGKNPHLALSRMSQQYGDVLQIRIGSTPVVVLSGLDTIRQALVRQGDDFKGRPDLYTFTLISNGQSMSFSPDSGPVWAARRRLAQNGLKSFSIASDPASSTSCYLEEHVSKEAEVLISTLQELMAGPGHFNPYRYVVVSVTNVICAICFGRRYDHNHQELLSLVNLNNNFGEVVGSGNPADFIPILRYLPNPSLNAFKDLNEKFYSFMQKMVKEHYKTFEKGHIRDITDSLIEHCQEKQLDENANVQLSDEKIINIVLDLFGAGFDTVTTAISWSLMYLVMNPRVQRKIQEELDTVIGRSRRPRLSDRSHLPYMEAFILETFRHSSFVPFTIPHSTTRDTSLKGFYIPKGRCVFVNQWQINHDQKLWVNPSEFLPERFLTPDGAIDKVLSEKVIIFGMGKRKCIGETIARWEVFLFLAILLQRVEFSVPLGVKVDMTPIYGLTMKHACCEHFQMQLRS

A549/TR [8] = assay: Synergistic antiproliferative activity against human A549/Taxol cells assessed as increase in taxol by measuring combination index at 7.50 uM incubated for 72 hrs in presence of 0.25 uM taxol by MTT assay; assay type: functional; settings: dose 7.5 µM
A549/TR [9] = assay: Synergistic antiproliferative activity against human A549/Taxol cells assessed as increase in taxol by measuring combination index at 3.75 uM incubated for 72 hrs in presence of 0.06 uM taxol by MTT assay; assay type: functional
A549/TR [10] = assay: Inhibition of cell migration in human A549/Taxol cells incubated for 36 hrs; assay type: functional, cell-based; settings: dose 2.5-10 µM
A549 [11] = assay: Inhibition of DMBA-induced CYP1B1 overexpression in human A549 cells assessed as increase in FAK level incubated for 24 hrs by densitometry analysis; assay type: functional, cell-based; settings: dose 5.0 µM
NCI-H460 [12] = assay: Inhibition of DMBA-induced CYP1B1 overexpression in human NCI-H460 cells assessed as increase in SRC level at 5 uM incubated for 24 hrs by densitometry analysis; assay type: functional, cell-based
CYP1B1 = molecular target: T3, CYP1B1 (Homo sapiens, UniProt Q16678); assay: Inhibition of recombinant human CYP1B1 assessed as inhibition ratio at 100 nM using 7-ethyl-0-resorufin as substrate incubated for 30 mins in presence of NADPH by EROD assay relative to control; settings: recombinant enzyme
T3 sequence (Q16678 whole entry): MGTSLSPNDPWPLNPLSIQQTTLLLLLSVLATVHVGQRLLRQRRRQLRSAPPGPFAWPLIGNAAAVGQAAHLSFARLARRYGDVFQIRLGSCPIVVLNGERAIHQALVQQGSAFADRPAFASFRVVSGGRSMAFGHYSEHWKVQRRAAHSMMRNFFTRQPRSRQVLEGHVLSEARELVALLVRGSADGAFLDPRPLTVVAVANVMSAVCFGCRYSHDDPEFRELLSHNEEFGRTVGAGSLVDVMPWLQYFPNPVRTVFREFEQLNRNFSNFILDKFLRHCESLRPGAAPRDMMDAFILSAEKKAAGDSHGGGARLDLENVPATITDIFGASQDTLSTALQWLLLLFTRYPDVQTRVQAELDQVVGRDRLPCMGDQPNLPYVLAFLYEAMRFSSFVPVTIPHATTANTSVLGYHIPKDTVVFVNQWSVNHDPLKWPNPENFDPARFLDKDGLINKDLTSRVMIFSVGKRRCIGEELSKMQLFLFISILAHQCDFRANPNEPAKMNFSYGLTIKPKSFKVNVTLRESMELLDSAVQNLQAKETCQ

A549 [13] = assay: Inhibition of DMBA-induced CYP1B1 overexpression in human A549 cells assessed as decrease in E-cadherin level incubated for 24 hrs by densitometry analysis; assay type: functional, cell-based; settings: dose 5.0 µM
NCI-H460 [14] = assay: Antiproliferative activity against human taxol resistance human NCI-H460 cells assessed as reduction in cell viability incubated for 24 hrs by MTT assay; assay type: functional, cell-based; settings: dose 5.0 µM
[15] = molecular target: T1, Mitogen-activated protein kinase; ERK1/ERK2 (Homo sapiens); assay: Inhibition of ERK1/2 pathway in human A549/Taxol cells assessed as decrease in phosphorylated ERK1/2 level at 5 uM incubated for 24 hrs; assay type: cell-based
NCI-H460 [16] = assay: Inhibition of DMBA-induced CYP1B1 overexpression in human NCI-H460 cells assessed as effect on E-cadherin level at 5 uM incubated for 24 hrs by densitometry analysis; assay type: functional, cell-based
NCI-H460 [17] = assay: Inhibition of cell migration in DMBA-induced human NCI-H460 cells at 5 uM incubated for 48 hrs by inverted microscopic analysis; assay type: functional, cell-based
NCI-H460 [18] = assay: Inhibition of cell invasion in DMBA-induced human NCI-H460 cells at 5 uM by optical microscopic analysis; assay type: functional, cell-based
NCI-H460 [19] = assay: Inhibition of DMBA-induced CYP1B1 overexpression in human NCI-H460 cells assessed as increase in FAK level incubated for 24 hrs by densitometry analysis; assay type: functional, cell-based; settings: dose 5.0 µM
NCI-H460 [20] = assay: Inhibition of DMBA-induced CYP1B1 overexpression in human NCI-H460 cells assessed as increase in N-cadherin level incubated for 24 hrs by densitometry analysis; assay type: functional, cell-based; settings: dose 5.0 µM

T1 sequence (P27361 whole entry, looked up): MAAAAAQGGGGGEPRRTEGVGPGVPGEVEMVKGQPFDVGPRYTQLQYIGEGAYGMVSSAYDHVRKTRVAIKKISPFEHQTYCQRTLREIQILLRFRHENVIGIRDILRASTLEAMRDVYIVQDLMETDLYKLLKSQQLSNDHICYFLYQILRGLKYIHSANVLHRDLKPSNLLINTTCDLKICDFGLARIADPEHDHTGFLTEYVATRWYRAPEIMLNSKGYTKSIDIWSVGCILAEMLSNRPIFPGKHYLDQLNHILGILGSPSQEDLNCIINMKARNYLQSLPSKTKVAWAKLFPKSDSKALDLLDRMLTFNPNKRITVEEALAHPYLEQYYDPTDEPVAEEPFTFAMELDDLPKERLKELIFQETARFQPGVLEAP
T1 sequence (P28482 whole entry, looked up): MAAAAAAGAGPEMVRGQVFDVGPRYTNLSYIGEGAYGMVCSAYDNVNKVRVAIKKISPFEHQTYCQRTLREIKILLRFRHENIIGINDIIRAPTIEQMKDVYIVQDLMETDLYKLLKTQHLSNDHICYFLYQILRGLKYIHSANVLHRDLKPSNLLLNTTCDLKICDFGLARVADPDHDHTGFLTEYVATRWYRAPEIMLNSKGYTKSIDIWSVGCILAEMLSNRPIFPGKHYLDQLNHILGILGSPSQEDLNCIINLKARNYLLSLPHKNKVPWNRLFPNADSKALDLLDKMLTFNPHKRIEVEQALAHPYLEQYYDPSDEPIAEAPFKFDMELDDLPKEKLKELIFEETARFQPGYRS
Chain of Proto-oncogene tyrosine-protein kinase Src (Homo sapiens) (P12931 2-536 limits assumed): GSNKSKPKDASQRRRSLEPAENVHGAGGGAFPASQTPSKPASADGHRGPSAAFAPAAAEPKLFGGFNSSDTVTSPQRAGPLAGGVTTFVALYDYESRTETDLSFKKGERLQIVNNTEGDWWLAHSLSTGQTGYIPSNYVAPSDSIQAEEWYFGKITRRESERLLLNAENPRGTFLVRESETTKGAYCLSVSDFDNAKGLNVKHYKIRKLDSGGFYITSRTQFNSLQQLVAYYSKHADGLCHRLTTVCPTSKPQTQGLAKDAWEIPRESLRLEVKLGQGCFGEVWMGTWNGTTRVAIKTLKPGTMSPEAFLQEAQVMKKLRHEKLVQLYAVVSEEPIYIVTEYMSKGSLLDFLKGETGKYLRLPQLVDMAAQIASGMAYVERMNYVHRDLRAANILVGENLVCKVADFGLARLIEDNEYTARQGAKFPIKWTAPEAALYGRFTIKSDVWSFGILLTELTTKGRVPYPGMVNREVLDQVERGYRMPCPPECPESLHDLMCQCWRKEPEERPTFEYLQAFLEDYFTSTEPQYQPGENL
Chain of Focal adhesion kinase 1 (Homo sapiens) (Q05397 2-1052 limits assumed): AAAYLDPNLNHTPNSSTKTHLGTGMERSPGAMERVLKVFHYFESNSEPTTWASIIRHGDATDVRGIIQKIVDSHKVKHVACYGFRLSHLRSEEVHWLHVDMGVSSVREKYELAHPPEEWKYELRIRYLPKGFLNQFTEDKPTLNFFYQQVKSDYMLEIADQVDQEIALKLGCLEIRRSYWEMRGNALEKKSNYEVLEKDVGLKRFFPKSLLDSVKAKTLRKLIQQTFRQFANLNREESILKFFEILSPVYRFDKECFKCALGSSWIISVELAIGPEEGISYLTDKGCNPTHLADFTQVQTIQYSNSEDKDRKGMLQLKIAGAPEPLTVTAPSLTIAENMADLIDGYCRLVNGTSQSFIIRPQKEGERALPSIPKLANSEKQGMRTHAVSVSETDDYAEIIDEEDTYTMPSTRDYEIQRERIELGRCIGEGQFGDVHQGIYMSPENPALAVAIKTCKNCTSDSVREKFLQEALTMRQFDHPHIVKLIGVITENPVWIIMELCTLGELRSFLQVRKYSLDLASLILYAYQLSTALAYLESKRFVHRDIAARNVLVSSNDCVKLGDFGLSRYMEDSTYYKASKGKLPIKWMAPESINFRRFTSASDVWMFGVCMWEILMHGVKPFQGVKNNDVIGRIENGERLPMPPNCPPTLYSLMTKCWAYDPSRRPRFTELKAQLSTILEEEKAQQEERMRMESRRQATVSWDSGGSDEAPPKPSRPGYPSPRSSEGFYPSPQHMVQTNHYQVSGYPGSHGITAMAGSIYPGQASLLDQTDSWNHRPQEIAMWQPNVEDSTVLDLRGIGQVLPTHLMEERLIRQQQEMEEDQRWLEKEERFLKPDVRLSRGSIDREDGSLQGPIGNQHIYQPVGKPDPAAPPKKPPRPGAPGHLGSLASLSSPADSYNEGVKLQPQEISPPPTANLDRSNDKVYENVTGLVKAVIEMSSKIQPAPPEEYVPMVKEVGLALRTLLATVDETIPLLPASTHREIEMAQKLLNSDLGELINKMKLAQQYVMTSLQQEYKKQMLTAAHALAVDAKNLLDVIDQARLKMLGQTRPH

Question: What does the source list for `COc1cc(Nc2nc(-c3nc(-c4ccccc4F)cs3)cs2)cc(OC)c1`?
Answer: CI (A549/TR [1]): 0.3; inhibition [2]: Active; Activity (A549/TR [3]): inactive; CI (A549/TR [4]): 0.2; inhibition [5]: Active; inhibition [6]: Active; CI (A549/TR [7]): 1.89; pIC50 (Cytochrome P450 1A1): 6.46; CI (A549/TR [8]): 0.47; CI (A549/TR [9]): 0.64; inhibition (A549/TR [10]): Dose-Dependent Effect

Question: How did the inhibition (A549 [11]) turn out when `COc1cc(/C=C/c2ccc(OC)cc2OC)cc(OC)c1` was run?
Answer: Dose-Dependent Effect

Question: And the inhibition (NCI-H460 [12])?
Answer: inactive

Question: And the inhibition at 0.5 h, 0.1 µM (CYP1B1)?
Answer: 88.9%

Question: What about the inhibition (A549 [13]) of the same molecule?
Answer: Dose-Dependent Effect

Question: And the Activity (NCI-H460 [14])?
Answer: Dose-Dependent Effect

Question: What about the inhibition [15] of the same molecule?
Answer: Active

Question: What about the inhibition (NCI-H460 [16]) of the same molecule?
Answer: inactive

Question: And the inhibition (NCI-H460 [17])?
Answer: Active

Question: What about the inhibition (NCI-H460 [18]) of the same molecule?
Answer: Active

Question: And the inhibition (NCI-H460 [19])?
Answer: Dose-Dependent Effect

Question: And the inhibition (NCI-H460 [20])?
Answer: Dose-Dependent Effect
